Measurements as given in ChEMBL document CHEMBL1201862, “PubChem BioAssay data set” (2004).
Activity calls are given as the source filed them.

Key:
Steroidogenic factor 1 = Steroidogenic factor 1 (Homo sapiens, UniProt Q13285); assay: Counterscreen for inverse agonists of the liver receptor homolog-1 (LRH-1; NR5A2): Luminescence-based cell-based high throughput dose response assay to identify inverse agonists of the Steroidogenic Factor 1 Nuclear Receptor (SF1; NR5A1).; format: functional
[1] = nonselective StAR promoter luciferase inhibitors – cell-based, luminescence, luciferase reporter, counter-screen for LRH-1 inverse agonist project, dose response (AID 651969); format: functional
[2] = target: Nuclear receptor subfamily 5 group A member 2 (Homo sapiens, UniProt O00482); format: functional, cell-based;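 note: HEK293T cells transfected with LRH-1 and a StAR promoter luciferase reporter; potency for inhibitors that lower LRH-1 driven reporter light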
HEK293 [3] = assay: inhibition of NOD1-driven NF-kB reporter – cell-based, luminescence, uHTS, primary screen (AID 1578); format: functional; settings: Homo sapiens
BJ [4] = assay: BJ-TERT-LT-ST fibroblast viability loss – cell-based, RAS-independent, luminescence, dose response (AID 1935); format: functional; settings: Homo sapiens;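 note: BJ fibroblasts immortalized with TERT plus LT and ST oncogenes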
HEK293 [5] = assay: cells; format: functional, cell-based; settings: Homo sapiens
BJ [6] = assay: BJ-TERT fibroblast viability loss – cell-based, RAS-independent, luminescence, dose response (AID 1933); format: functional; settings: Homo sapiens
BJ [7] = assay: cells; format: functional, cell-based; settings: Homo sapiens
HEK293 [8] = assay: cells; format: functional, cell-based; settings: Homo sapiens; remark: listed apart in the source
HEK293 [9] = assay: NOD2 signaling inhibitors in MDP-stimulated cells, cell-based, uHTS, luminescence (AID 2001); format: functional; settings: Homo sapiens
BJ [10] = assay: growth inhibition of engineered Ras-driven BJ cells – cell-based, alamar blue fluorescence, cherrypicked samples, dose response (AID 2631); format: functional; settings: Homo sapiens;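 note: confirmatory dose-response assay in RAS-dependent BJ fibroblasts engineered with TERT, LT and ST, with cytotoxicity read by fluorescence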
[11] = DRD fibroblast viability loss – cell-based, non-viral oncogenic, luminescence, dose response (AID 1934); format: functional; settings: Homo sapiens
[12] = target: T1, High affinity choline transporter 1 (Homo sapiens, UniProt Q9GZV3); assay: human choline transporter blockers, potency – cell-based, 10-point CRC, membrane potential dye, dose response (AID 588401); format: functional;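 note: membrane potential dye fluorescence of choline-evoked depolarization via CHT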
T1 sequence (Q9GZV3 whole entry): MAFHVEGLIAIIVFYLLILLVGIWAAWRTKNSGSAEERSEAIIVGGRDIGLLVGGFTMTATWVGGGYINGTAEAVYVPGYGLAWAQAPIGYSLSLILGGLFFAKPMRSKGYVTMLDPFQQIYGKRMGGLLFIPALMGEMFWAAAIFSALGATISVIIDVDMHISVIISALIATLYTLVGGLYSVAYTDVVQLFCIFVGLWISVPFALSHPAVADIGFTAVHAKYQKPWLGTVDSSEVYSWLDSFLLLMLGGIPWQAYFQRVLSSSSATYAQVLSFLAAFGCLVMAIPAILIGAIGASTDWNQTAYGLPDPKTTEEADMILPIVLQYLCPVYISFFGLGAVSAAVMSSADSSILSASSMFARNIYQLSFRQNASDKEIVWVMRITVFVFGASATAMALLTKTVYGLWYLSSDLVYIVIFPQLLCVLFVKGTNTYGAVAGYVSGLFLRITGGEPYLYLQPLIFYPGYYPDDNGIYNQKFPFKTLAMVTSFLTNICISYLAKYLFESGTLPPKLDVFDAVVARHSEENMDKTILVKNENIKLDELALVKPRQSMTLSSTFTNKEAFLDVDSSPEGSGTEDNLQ

[13] = fluconazole-exposed Candida albicans growth modulators – fluorescence, retest, confirmation (AID 2467); format: functional, cell-based
[14] = NIH-3T3 fibroblast cytotoxicity, dose response, cytotoxicity control, cell-based, fluorescence, Alamar Blue, secondary assay (AID 2327); format: functional;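 note: NIH-3T3 mouse fibroblasts cultured with fluconazole at 8 µg/mL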
[15] = target: T2, Short transient receptor potential channel 4 (Mus musculus, UniProt Q9QUQ5); assay: block of DAMGO-driven TRPC4 calcium entry – cell-based, HEK293 TRPC4/mu-opioid, Fluo-4 calcium, dose response (AID 434942); format: functional;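 note: potency of inhibitors blocking the TRPC4 calcium response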
T2 sequence (Q9QUQ5 whole entry): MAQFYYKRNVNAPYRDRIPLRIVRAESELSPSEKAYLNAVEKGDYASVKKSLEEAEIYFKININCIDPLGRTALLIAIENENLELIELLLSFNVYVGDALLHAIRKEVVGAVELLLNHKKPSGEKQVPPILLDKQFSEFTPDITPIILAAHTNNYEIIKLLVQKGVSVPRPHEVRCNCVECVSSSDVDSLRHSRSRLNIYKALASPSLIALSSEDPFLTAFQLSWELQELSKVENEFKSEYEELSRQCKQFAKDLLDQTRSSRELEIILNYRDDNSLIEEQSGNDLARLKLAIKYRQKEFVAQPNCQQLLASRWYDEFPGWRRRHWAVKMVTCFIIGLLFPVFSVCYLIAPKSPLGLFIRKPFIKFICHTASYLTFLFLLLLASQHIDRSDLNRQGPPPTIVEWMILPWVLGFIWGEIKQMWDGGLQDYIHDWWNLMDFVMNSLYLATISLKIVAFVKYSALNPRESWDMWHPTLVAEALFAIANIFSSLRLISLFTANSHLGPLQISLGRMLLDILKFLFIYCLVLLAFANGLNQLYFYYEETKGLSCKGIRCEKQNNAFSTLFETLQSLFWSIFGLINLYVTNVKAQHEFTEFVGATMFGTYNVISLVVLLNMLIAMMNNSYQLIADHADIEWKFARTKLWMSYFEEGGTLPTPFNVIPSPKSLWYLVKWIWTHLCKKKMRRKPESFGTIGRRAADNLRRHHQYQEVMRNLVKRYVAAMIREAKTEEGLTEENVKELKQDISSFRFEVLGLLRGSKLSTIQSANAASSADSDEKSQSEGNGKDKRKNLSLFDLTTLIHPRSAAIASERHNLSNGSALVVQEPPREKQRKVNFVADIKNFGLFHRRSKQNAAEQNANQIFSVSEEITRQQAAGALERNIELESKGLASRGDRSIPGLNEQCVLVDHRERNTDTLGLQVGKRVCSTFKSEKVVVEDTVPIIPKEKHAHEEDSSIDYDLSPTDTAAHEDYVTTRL

[16] = target: Dual specificity tyrosine-phosphorylation-regulated kinase 1A (Rattus norvegicus, UniProt Q63470); format: biochemical, Homo sapiens
INS1 = assay: INS-1E survival protection against cytokine death – cell-based, luminescence, retest, dose response (AID 449756); format: functional; settings: Rattus norvegicus;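 note: cell death triggered by IL-1 beta plus TNF-alpha plus IFN-gamma mixture; protective hits raise ATP signal compared with cytokine alone wells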
[17] = target: T1, High affinity choline transporter 1; assay: human choline transporter blockers, potency – cell-based, 5-point CRC, membrane potential dye, dose response (AID 504840); format: functional
Aminopeptidase N = target: T3, Aminopeptidase N (Plasmodium falciparum FcB1/Columbia, UniProt O96935); assay: malaria alanyl aminopeptidase activity blockers – biochemical, fluorogenic H-Leu-NHMec substrate, 1536-well (AID 1445); parameters: species or system Plasmodium falciparum 3D7, 3D7
T3 sequence (O96935 whole entry): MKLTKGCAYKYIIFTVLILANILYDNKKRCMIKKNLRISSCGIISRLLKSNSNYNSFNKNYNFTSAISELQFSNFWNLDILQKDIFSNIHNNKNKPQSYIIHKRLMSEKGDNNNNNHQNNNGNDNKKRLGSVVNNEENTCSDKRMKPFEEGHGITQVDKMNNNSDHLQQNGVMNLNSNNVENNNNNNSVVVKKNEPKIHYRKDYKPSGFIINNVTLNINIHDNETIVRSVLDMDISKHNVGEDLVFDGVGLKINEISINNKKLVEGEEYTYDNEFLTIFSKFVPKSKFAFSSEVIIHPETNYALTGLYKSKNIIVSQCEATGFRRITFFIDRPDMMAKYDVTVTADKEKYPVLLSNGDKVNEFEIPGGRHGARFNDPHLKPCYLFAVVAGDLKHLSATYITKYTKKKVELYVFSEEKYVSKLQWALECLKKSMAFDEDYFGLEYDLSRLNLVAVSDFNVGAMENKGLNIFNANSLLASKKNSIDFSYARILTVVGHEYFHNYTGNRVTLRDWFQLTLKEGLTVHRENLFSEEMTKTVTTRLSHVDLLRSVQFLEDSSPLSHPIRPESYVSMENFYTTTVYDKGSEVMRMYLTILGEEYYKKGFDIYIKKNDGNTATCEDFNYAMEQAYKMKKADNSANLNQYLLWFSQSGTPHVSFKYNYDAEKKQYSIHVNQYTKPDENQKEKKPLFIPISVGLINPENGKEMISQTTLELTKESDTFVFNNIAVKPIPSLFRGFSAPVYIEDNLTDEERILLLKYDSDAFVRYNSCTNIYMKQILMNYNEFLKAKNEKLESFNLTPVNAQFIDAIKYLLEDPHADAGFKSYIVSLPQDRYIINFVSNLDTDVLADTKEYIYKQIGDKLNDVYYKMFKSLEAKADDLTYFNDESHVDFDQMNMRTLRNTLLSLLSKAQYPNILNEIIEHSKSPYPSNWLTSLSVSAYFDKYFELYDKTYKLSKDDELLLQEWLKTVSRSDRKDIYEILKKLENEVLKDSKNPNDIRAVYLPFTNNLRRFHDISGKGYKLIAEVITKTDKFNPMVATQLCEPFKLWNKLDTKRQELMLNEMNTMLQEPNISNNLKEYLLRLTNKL

[18] = target: Adenosylmethionine-8-amino-7-oxononanoate aminotransferase (Mycobacterium tuberculosis, UniProt P9WQ81); assay: Mycobacterium tuberculosis BioA enzyme inhibitor Measured in Biochemical System Using Plate Reader - 2163-02_Inhibitor_Dose_CherryPick_Activity.; format: functional, Mycobacterium tuberculosis UT205
[19] = target: T4, Polyadenylate-binding protein 1 (Homo sapiens, UniProt P11940); assay: MLLE binding blockers, Cy5 peptide tracer – biochemical, fluorescence polarization, Cy5-PAM2 peptide, secondary, miRNA deadenylation inhibitor project, dose response (AID 602260); format: functional; settings: read-out: IC50_Mean
Melanocortin receptor 4 = Melanocortin receptor 4 (Homo sapiens, UniProt P32245); format: functional, cell-based;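 note: Cell-based assay with luminescence read-out, confirmatory dose-response testing for agonist activity of biased ligands at MC4R; human U2OS cells with tagged receptor and beta-arrestin; potency of agonists that increase receptor coupling to beta-arrestin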
[20] = target: T4, Polyadenylate-binding protein 1; assay: MLLE domain peptide-binding blockers, IC50 – biochemical, fluorescence polarization, FITC-PAM2 peptide, dose response (AID 602259); format: functional; settings: read-out: IC50_Mean
[21] = THP-1 cell cytotoxicity, dose response, cytotoxicity control for non-replicating M. tuberculosis project (AID 489025); format: functional
Nonstructural protein 1 = Nonstructural protein 1 (Influenza A virus, UniProt Q194T2); format: functional, Influenza A virus (A/California/07/2009(H1N1))
[22] = bead-based luminescence quenchers, dual-tagged ARNT – biochemical, AlphaScreen, cherry-pick, artefact control for ARNT-TACC3 interaction inhibitor project, dose response (AID 651705); format: functional;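 note: AlphaScreen bead proximity signal that flags compounds interfering with the detection technology; potency reflects signal decrease which marks the compound as an assay artifact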
[23] = Vero E6 cell cytotoxicity, dose response, cytotoxicity control for non-replicating M. tuberculosis project, secondary assay (AID 492998); format: functional, VeroE6; settings: Vero C1008
H9c2 = assay: cells; format: functional, cell-based; settings: Rattus norvegicus, H9c2, Myocardium;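 note: confirmatory concentration-response retest of ultra-high-throughput screening hits for modulation of myocardial damage; cell death induced by hydrogen peroxide oxidative stress; compound pretreatment for 60 min then peroxide exposure for 2 h; potency is for protecting the cells against peroxide damage rather than for killing them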
cells = format: functional
[24] = HepG2 cell cytotoxicity, dose response, cytotoxicity control for non-replicating M. tuberculosis project (AID 489018); format: functional; settings: Mycobacterium tuberculosis

T4 sequence (P11940 whole entry): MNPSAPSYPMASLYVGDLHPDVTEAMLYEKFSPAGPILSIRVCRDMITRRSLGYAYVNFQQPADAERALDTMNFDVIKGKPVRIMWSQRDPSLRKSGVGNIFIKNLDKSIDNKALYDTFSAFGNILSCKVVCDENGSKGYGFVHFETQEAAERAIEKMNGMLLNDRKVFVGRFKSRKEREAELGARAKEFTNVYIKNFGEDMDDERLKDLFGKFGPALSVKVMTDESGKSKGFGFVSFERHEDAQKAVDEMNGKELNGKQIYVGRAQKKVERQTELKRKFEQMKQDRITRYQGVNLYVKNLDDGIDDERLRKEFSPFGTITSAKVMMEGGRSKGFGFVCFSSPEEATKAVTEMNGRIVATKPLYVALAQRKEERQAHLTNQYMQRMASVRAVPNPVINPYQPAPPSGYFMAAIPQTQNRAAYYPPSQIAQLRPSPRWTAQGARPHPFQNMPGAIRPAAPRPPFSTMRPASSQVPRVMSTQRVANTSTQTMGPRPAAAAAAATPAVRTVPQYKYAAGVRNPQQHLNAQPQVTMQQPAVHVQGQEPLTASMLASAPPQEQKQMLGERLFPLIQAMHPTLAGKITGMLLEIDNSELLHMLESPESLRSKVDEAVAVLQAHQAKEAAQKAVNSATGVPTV
Sequence of Adenosylmethionine-8-amino-7-oxononanoate aminotransferase (P9WQ81 whole entry): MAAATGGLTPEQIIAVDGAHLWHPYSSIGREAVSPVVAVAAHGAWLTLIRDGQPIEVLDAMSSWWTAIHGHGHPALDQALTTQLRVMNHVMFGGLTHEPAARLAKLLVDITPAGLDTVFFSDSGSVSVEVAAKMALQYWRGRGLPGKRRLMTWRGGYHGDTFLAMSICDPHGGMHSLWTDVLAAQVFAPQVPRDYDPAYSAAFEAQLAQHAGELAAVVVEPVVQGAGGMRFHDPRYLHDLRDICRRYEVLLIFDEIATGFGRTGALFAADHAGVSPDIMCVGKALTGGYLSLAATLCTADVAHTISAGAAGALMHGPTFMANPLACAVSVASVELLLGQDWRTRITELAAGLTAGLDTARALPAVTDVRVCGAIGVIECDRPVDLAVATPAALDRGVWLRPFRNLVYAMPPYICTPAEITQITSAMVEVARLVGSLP
Sequence of Steroidogenic factor 1 (Q13285 whole entry): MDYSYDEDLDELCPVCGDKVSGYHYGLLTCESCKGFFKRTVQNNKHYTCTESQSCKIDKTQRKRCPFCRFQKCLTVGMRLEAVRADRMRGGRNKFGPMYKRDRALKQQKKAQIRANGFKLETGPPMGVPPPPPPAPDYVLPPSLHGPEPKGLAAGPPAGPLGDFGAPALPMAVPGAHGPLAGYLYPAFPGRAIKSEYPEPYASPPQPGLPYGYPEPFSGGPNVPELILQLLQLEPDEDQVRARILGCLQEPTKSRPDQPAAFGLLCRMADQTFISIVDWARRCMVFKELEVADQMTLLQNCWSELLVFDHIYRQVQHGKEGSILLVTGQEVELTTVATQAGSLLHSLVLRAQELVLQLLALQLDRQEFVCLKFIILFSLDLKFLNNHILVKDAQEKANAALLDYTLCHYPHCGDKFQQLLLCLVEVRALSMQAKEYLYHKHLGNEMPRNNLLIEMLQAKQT
Sequence of Nuclear receptor subfamily 5 group A member 2 (O00482 whole entry): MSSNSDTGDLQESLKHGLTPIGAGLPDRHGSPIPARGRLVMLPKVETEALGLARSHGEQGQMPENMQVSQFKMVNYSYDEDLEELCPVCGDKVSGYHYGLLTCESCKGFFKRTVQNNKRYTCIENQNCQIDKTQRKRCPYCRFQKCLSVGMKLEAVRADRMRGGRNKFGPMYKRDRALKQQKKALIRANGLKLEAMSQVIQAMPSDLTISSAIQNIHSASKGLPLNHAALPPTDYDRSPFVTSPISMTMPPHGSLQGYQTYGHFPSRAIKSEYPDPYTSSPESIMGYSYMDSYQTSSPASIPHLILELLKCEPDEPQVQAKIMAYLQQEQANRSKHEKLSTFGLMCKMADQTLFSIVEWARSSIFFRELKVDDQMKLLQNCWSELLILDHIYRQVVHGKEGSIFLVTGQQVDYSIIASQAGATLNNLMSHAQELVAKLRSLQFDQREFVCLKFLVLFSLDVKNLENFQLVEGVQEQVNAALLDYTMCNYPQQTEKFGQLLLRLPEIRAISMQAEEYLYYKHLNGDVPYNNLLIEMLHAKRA
Sequence of Nonstructural protein 1 (Q194T2 whole entry): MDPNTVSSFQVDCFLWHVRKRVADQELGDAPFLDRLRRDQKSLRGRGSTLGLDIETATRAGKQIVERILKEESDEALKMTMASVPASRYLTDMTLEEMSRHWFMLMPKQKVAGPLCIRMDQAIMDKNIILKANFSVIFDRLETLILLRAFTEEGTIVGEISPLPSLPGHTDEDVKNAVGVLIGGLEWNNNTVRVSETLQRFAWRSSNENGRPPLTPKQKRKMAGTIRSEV
Sequence of Melanocortin receptor 4 (P32245 whole entry, the tested form may be a part): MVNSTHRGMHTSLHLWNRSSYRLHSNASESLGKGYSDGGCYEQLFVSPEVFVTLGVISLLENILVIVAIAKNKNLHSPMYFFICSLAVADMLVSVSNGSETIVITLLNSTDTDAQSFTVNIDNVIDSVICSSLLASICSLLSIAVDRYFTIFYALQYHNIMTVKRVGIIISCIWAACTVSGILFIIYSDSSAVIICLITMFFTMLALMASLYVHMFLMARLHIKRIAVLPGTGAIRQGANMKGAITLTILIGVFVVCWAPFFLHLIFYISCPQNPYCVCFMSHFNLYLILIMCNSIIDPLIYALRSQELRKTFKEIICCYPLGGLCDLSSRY

SMILES: COc1cc(C(=O)Nc2ccccc2C2COC(=O)C2=N)cc(OC)c1OC (stereo not drawn)
- IC50 (Steroidogenic factor 1): 4.53 µM (active)
- IC50 [1]: 35.9 µM (inactive)
- IC50 [2]: 8.25 µM (active)

SMILES: Cc1ccc(Nc2nc(N)nc(CCl)n2)c(C)c1
- EC50 (HEK293 [3]): 13.9 µM (active)
- EC50 (BJ [4]): 10.4 µM (active)
- IC50 (HEK293 [5]): > 20 µM (inactive)
- EC50 (BJ [6]): < 0.12 µM (active)
- EC50 (BJ [7]): 1.05 µM (active)
- IC50 (HEK293 [8]): 12.8 µM (active)
- IC50 (HEK293 [9]): 10.5 µM (inactive)
- EC50 (BJ [10]): 4.45 µM (active)
- EC50 [11]: 0.423 µM (active)

SMILES: N#C/C(=N\Nc1cccc([N+](=O)[O-])c1)C(=O)c1ccc(Br)cc1
- IC50 [12]: 3.36 µM (active)
- EC50 [13]: 4.48 µM (active)
- EC50 [14]: 56.9 µM (active)
- EC50 [15]: 3.35 µM (active)
- AC50 [16]: 2.91 µM (active)
- AC50 (INS1): 6.82 µM (active)
- IC50 [17]: 9.02 µM (active)
- IC50 (Aminopeptidase N): 40.5 µM (active)

SMILES: Cc1ccc(-n2ncc3c2CC(C)(C)CC3NC(=O)CCc2cccnc2)cc1 (stereo not drawn)
- AC50 [18]: 9.11 µM (active)

SMILES: CC(=O)Nc1cc(-c2ccccc2N(C)C)cn2c(-c3ccc(F)c(Cl)c3)cnc12
- IC50 [19]: > 66 µM (inactive)
- EC50 (Melanocortin receptor 4): > 89.2 µM (inactive)
- IC50 [20]: > 66 µM (inactive)

SMILES: Cc1ccc[n+](CC(=O)c2ccc(Cl)cc2)c1
- IC50 [12]: 0.946 µM (active)
- IC50 [17]: 1.82 µM (active)

SMILES: O=C(CCS(=O)(=O)c1ccccc1)Nc1nc(-c2ccccn2)cs1
- CC50 [21]: 22.5 µM (active)
- IC50 (Nonstructural protein 1): 15.7 µM (active)
- AC50 [22]: 118 µM (active)
- CC50 [23]: 10.6 µM (active)
- IC50 (H9c2): 35.8 µM (inactive)
- IC50 (cells): 4.53 µM (active)
- CC50 [24]: > 20 µM (active)
